Measurements from patent US20220192955A1, “AZOXYSTROBIN EFFICACY IN SCALP HEALTH” (The Procter & Gamble Company, priority 2020, published 2022).
In brackets after ≈: the same amount, converted by molar mass.

Tested on: Malassezia furfur (CBS 7982)
Test: In vitro evaluation of antifungal potency (MIC)
Type: cell-based
Conditions: for MIC value, Malassezia furfur / MIC: M. furfur CBS 7982, mDixon medium, 31° C., approximately 72 hours, absorbance at 600 nm; for MIC: Malassezia furfur, CBS7982
Procedure: Malassezia furfur (CBS 7982) is grown for approximately 24 hours in a 250 ml vent cap polycarbonate Erlenmeyer flask containing approximately 100 ml of mDixon medium and 5 ml of a fully grown M. furfur culture prepared using the same conditions as described. The cells are diluted by mixing 2.5 ml of the 24 hour-old culture per 50 ml of mDixon medium. A Versette robot (ThermoFisher Scientific) is used to transfer 292.5 μl of the dilute cells into each well of a Beckman 267007 polypropylene round bottom deep well plate. All compounds are sourced from Sigma Aldrich (St. Louis, Mo.) and prepared as 10 mg/ml in DMSO. A semipermeable aeraseal membrane is applied to the plate which is then be covered with water-soaked cotton batting. The samples are be shaken at 31° C. on a Heidolph Titramax 100 shaker at 1500 rpm for approximately 72 hours. The plates are shaken at 1250 rpm on an Eppendorf MixMate shaker to disperse the cells before transferring 200 μl to a Corning 3596 polystyrene plate. The samples are shaken again at 950 rpm on a MixMate shaker before the absorbance at 600 nm is read using a Molecular Devices SpectraMax plate reader.

MIC value, Malassezia furfur [ppm]	times less potent than azoxystrobin (MIC) (Malassezia furfur MIC ratio) [times]	Molecule	MIC [µg/mL]
7.81	–	CNC(=O)/C(=N/OC)c1ccccc1COc1cc(C)ccc1C [Dimoxystrobin, dimoxystrobin]	–
–	–	CO/N=C(/C1=NOCCO1)c1ccccc1Oc1ncnc(Oc2ccccc2Cl)c1F [Fluoxastrobin, fluoxastrobin]	3.91 (≈ 8.52 µM)
–	–	CO/N=C(/C(=O)OC)c1ccccc1COc1ccccc1C [Kresoxim-methyl, kresoxim methyl]	15.6 (≈ 49.9 µM)
31.25	64	CNC(=O)/C(=N/OC)c1ccccc1CO/N=C(C)/C(=N/OC)C(/C)=N/OC [Orysastrobin, orysastrobin]	–
–	–	COC(=O)N(OC)c1ccccc1COc1ccn(-c2ccc(Cl)cc2)n1 [Pyraclastrobin, pyraclostrobin]	1.95 (≈ 5.03 µM)
–	–	CON=C(C(=O)OC)c1ccccc1CON=C(C)c1cccc(C(F)(F)F)c1 [Trifloxystrobin, trifloxystrobin]	15.6 (≈ 38.3 µM)

Molecule	MIC value, Malassezia furfur [ppm]	times less potent than azoxystrobin (MIC) (Malassezia furfur MIC ratio) [times]	MIC [µg/mL]
zinc pyrithione	3.13	–	–
